Test results taken from PMC8037182, “Solvothermal Synthesis of Multiple Dihydropyrimidinones at a Time as Inhibitors of Eg5” (Molecules, 2021).

What was measured:
T24 cell line = experiment: Cytotoxicity MTS assay, T24 cell line; type: cell-based; conditions: for IC50: MTS assay, 24 h exposure; for OD490 Mean / OD490 Well 1 / OD490 Well 2 / OD490 Well 3: T24 cell line, first assay;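 as to OD490 Mean: blank control wells received 0.025% DMSO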;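 as to OD490 Well 1: blank control wells received 0.025% DMSO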;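 as to OD490 Well 2: blank control wells received 0.025% DMSO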;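 as to OD490 Well 3: blank control wells received 0.025% DMSO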
Procedure, shortened: (§1)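 Cells seeded at 1000 per well, grown 24 h, then exposed to compound (0.5–100 µM final) for 24 h with 0.025% DMSO blank. MTS reagent added for 2 h at 37 °C, absorbance read at 490 nm; IC50 from non-linear regression of % viability versus concentration, three independent duplicate experiments.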

L929 cell line = experiment: Cytotoxicity MTS assay, L929 cell line; type: cell-based; conditions: for OD490 values, Mean / OD490 values, Well 1 / OD490 values, Well 2 / OD490 values, Well 3: L929 cell line; for IC50: MTS assay, 24 h exposure, ordinary fibroblast, not cancer cells
Procedure, shortened: as §1

Structure (SMILES): CCOC(=O)c1c(C2NC(=O)NC(C)=C2C(=O)Nc2ccccc2)[nH]c(C(=O)OC)c1C (stereo not shown) [D10]
- IC50 (T24 cell line): > 150 µM
- OD490 Mean (T24 cell line; 0.5μM): 1.3759
- OD490 Well 1 (T24 cell line; 0.5μM): 1.3871
- OD490 Well 2 (T24 cell line; 0.5μM): 1.3651
- OD490 Well 3 (T24 cell line; 0.5μM): 1.3756
- OD490 Mean (T24 cell line; 1μM): 1.3764
- OD490 Well 1 (T24 cell line; 1μM): 1.2835
- OD490 Well 2 (T24 cell line; 1μM): 1.4515
- OD490 Well 3 (T24 cell line; 1μM): 1.3943
- OD490 Mean (T24 cell line; 10μM): 1.4610
- OD490 Well 1 (T24 cell line; 10μM): 1.3272
- OD490 Well 2 (T24 cell line; 10μM): 1.6117
- OD490 Well 3 (T24 cell line; 10μM): 1.4442
- OD490 Mean (T24 cell line; 25μM): 1.4209
- OD490 Well 1 (T24 cell line; 25μM): 1.3594
- OD490 Well 2 (T24 cell line; 25μM): 1.6346
- OD490 Well 3 (T24 cell line; 25μM): 1.2686
- OD490 Mean (T24 cell line; 50μM): 1.2169
- OD490 Well 1 (T24 cell line; 50μM): 1.1849
- OD490 Well 2 (T24 cell line; 50μM): 1.3216
- OD490 Well 3 (T24 cell line; 50μM): 1.1441
- OD490 Mean (T24 cell line; 100μM): 1.1356
- OD490 Well 1 (T24 cell line; 100μM): 1.2013
- OD490 Well 2 (T24 cell line; 100μM): 1.0672
- OD490 Well 3 (T24 cell line; 100μM): 1.1383
- OD490 values, Mean (L929 cell line; 0.5μM, first assay): 1.1783
- OD490 values, Well 1 (L929 cell line; 0.5μM, first assay): 1.1608
- OD490 values, Well 2 (L929 cell line; 0.5μM, first assay): 1.2289
- OD490 values, Well 3 (L929 cell line; 0.5μM, first assay): 1.1452
- OD490 values, Mean (L929 cell line; 1μM, first assay): 1.1453
- OD490 values, Well 1 (L929 cell line; 1μM, first assay): 1.2474
- OD490 values, Well 2 (L929 cell line; 1μM, first assay): 1.0902
- OD490 values, Well 3 (L929 cell line; 1μM, first assay): 1.0983
- OD490 values, Mean (L929 cell line; 10μM, first assay): 1.1621
- OD490 values, Well 1 (L929 cell line; 10μM, first assay): 1.1874
- OD490 values, Well 2 (L929 cell line; 10μM, first assay): 1.1922
- OD490 values, Well 3 (L929 cell line; 10μM, first assay): 1.1066
- OD490 values, Mean (L929 cell line; 25μM, first assay): 1.1923
- OD490 values, Well 1 (L929 cell line; 25μM, first assay): 1.1856
- OD490 values, Well 2 (L929 cell line; 25μM, first assay): 1.2091
- OD490 values, Well 3 (L929 cell line; 25μM, first assay): 1.1822
- OD490 values, Mean (L929 cell line; 50μM, first assay): 1.0704
- OD490 values, Well 1 (L929 cell line; 50μM, first assay): 0.9680
- OD490 values, Well 2 (L929 cell line; 50μM, first assay): 1.0467
- OD490 values, Well 3 (L929 cell line; 50μM, first assay): 1.1965
- OD490 values, Mean (L929 cell line; 100μM, first assay): 0.9201
- OD490 values, Well 1 (L929 cell line; 100μM, first assay): 0.8725
- OD490 values, Well 2 (L929 cell line; 100μM, first assay): 0.9125
- OD490 values, Well 3 (L929 cell line; 100μM, first assay): 0.9752
- IC50 (L929 cell line): > 150 µM

Structure (SMILES): CCOC(=O)c1[nH]c(C2NC(=S)NC(C)=C2C(=O)OC)c(C(=O)OCC)c1C (stereo not shown) [D12]
- IC50 (T24 cell line): > 150 µM
- OD490 Mean (T24 cell line; 0.5μM): 1.1142
- OD490 Well 1 (T24 cell line; 0.5μM): 1.0855
- OD490 Well 2 (T24 cell line; 0.5μM): 0.8354
- OD490 Well 3 (T24 cell line; 0.5μM): 1.4216
- OD490 Mean (T24 cell line; 1μM): 1.1490
- OD490 Well 1 (T24 cell line; 1μM): 1.1324
- OD490 Well 2 (T24 cell line; 1μM): 1.1847
- OD490 Well 3 (T24 cell line; 1μM): 1.1298
- OD490 Mean (T24 cell line; 10μM): 1.2900
- OD490 Well 1 (T24 cell line; 10μM): 1.3295
- OD490 Well 2 (T24 cell line; 10μM): 1.2196
- OD490 Well 3 (T24 cell line; 10μM): 1.3210
- OD490 Mean (T24 cell line; 25μM): 1.3787
- OD490 Well 1 (T24 cell line; 25μM): 1.3758
- OD490 Well 2 (T24 cell line; 25μM): 1.4030
- OD490 Well 3 (T24 cell line; 25μM): 1.3572
- OD490 Mean (T24 cell line; 50μM): 1.3058
- OD490 Well 1 (T24 cell line; 50μM): 1.3832
- OD490 Well 2 (T24 cell line; 50μM): 1.3204
- OD490 Well 3 (T24 cell line; 50μM): 1.2137
- OD490 Mean (T24 cell line; 100μM): 1.2394
- OD490 Well 1 (T24 cell line; 100μM): 1.3664
- OD490 Well 2 (T24 cell line; 100μM): 1.1849
- OD490 Well 3 (T24 cell line; 100μM): 1.1670
- OD490 values, Mean (L929 cell line; 0.5μM, first assay): 1.1913
- OD490 values, Well 1 (L929 cell line; 0.5μM, first assay): 1.1038
- OD490 values, Well 2 (L929 cell line; 0.5μM, first assay): 1.2202
- OD490 values, Well 3 (L929 cell line; 0.5μM, first assay): 1.2500
- OD490 values, Mean (L929 cell line; 0.5μM, second assay): 1.4730
- OD490 values, Well 1 (L929 cell line; 0.5μM, second assay): 1.5380
- OD490 values, Well 2 (L929 cell line; 0.5μM, second assay): 1.4321
- OD490 values, Well 3 (L929 cell line; 0.5μM, second assay): 1.4489
- OD490 values, Mean (L929 cell line; 0.5μM, third assay): 1.5772
- OD490 values, Well 1 (L929 cell line; 0.5μM, third assay): 1.5471
- OD490 values, Well 2 (L929 cell line; 0.5μM, third assay): 1.5630
- OD490 values, Well 3 (L929 cell line; 0.5μM, third assay): 1.6214
- OD490 values, Mean (L929 cell line; 1μM, first assay): 1.1860
- OD490 values, Well 1 (L929 cell line; 1μM, first assay): 1.2156
- OD490 values, Well 2 (L929 cell line; 1μM, first assay): 1.2049
- OD490 values, Well 3 (L929 cell line; 1μM, first assay): 1.1374
- OD490 values, Mean (L929 cell line; 1μM, second assay): 1.4734
- OD490 values, Well 1 (L929 cell line; 1μM, second assay): 1.5248
- OD490 values, Well 2 (L929 cell line; 1μM, second assay): 1.4852
- OD490 values, Well 3 (L929 cell line; 1μM, second assay): 1.4101
- OD490 values, Mean (L929 cell line; 1μM, third assay): 1.5596
- OD490 values, Well 1 (L929 cell line; 1μM, third assay): 1.5474
- OD490 values, Well 2 (L929 cell line; 1μM, third assay): 1.5836
- OD490 values, Well 3 (L929 cell line; 1μM, third assay): 1.5478
- OD490 values, Mean (L929 cell line; 10μM, first assay): 1.1924
- OD490 values, Well 1 (L929 cell line; 10μM, first assay): 1.2175
- OD490 values, Well 2 (L929 cell line; 10μM, first assay): 1.1577
- OD490 values, Well 3 (L929 cell line; 10μM, first assay): 1.2021
- OD490 values, Mean (L929 cell line; 10μM, second assay): 1.4056
- OD490 values, Well 1 (L929 cell line; 10μM, second assay): 1.3665
- OD490 values, Well 2 (L929 cell line; 10μM, second assay): 1.4252
- OD490 values, Well 3 (L929 cell line; 10μM, second assay): 1.4252
- OD490 values, Mean (L929 cell line; 10μM, third assay): 1.6223
- OD490 values, Well 1 (L929 cell line; 10μM, third assay): 1.6874
- OD490 values, Well 2 (L929 cell line; 10μM, third assay): 1.5874
- OD490 values, Well 3 (L929 cell line; 10μM, third assay): 1.5922
- OD490 values, Mean (L929 cell line; 25μM, first assay): 1.1330
- OD490 values, Well 1 (L929 cell line; 25μM, first assay): 1.1639
- OD490 values, Well 2 (L929 cell line; 25μM, first assay): 1.1385
- OD490 values, Well 3 (L929 cell line; 25μM, first assay): 1.0965
- OD490 values, Mean (L929 cell line; 25μM, second assay): 1.3592
- OD490 values, Well 1 (L929 cell line; 25μM, second assay): 1.4632
- OD490 values, Well 2 (L929 cell line; 25μM, second assay): 1.2302
- OD490 values, Well 3 (L929 cell line; 25μM, second assay): 1.3841
- OD490 values, Mean (L929 cell line; 25μM, third assay): 1.5851
- OD490 values, Well 1 (L929 cell line; 25μM, third assay): 1.5924
- OD490 values, Well 2 (L929 cell line; 25μM, third assay): 1.5955
- OD490 values, Well 3 (L929 cell line; 25μM, third assay): 1.5674
- OD490 values, Mean (L929 cell line; 50μM, first assay): 1.0425
- OD490 values, Well 1 (L929 cell line; 50μM, first assay): 1.0133
- OD490 values, Well 2 (L929 cell line; 50μM, first assay): 1.0567
- OD490 values, Well 3 (L929 cell line; 50μM, first assay): 1.0575
- OD490 values, Mean (L929 cell line; 50μM, second assay): 1.2636
- OD490 values, Well 1 (L929 cell line; 50μM, second assay): 1.2147
- OD490 values, Well 2 (L929 cell line; 50μM, second assay): 1.2548
- OD490 values, Well 3 (L929 cell line; 50μM, second assay): 1.3214
- OD490 values, Mean (L929 cell line; 50μM, third assay): 1.3874
- OD490 values, Well 1 (L929 cell line; 50μM, third assay): 1.3352
- OD490 values, Well 2 (L929 cell line; 50μM, third assay): 1.3582
- OD490 values, Well 3 (L929 cell line; 50μM, third assay): 1.4687
- OD490 values, Mean (L929 cell line; 100μM, first assay): 0.9106
- OD490 values, Well 1 (L929 cell line; 100μM, first assay): 0.8752
- OD490 values, Well 2 (L929 cell line; 100μM, first assay): 0.9980
- OD490 values, Well 3 (L929 cell line; 100μM, first assay): 0.8587
- OD490 values, Mean (L929 cell line; 100μM, second assay): 1.0255
- OD490 values, Well 1 (L929 cell line; 100μM, second assay): 0.9632
- OD490 values, Well 2 (L929 cell line; 100μM, second assay): 1.0012
- OD490 values, Well 3 (L929 cell line; 100μM, second assay): 1.1122
- OD490 values, Mean (L929 cell line; 100μM, third assay): 1.3052
- OD490 values, Well 1 (L929 cell line; 100μM, third assay): 1.3254
- OD490 values, Well 2 (L929 cell line; 100μM, third assay): 1.2547
- OD490 values, Well 3 (L929 cell line; 100μM, third assay): 1.3354
- IC50 (L929 cell line): 121 µM
